Measured values taken from ChEMBL document CHEMBL5661943, “ASAP - In vitro antiviral effect” (2024).
Where “and” joins values, the source holds several entries; their conditions need not be identical. Equal values may be shown once.

How the values were obtained:
[1] = system: dengue virus type 2; experiment: Functional assay to measure dose dependent changes in antiviral-drug inhibitory efficacy against Dengue virus type 2 New Guinea C in Vero E6 miRFP670 cells (cotreated with P-gp inhibitor, CP100356). Cells are treated with antiviral candidates that are serially diluted, following infection, cells are fixed. EC50 is reported via analysis of fluorescence intensity using high-content imager. The …; type: organism-based, Chlorocebus sabaeus, Vero C1008; settings: for EC90: P-gp concentration 500 nM, P-gp inhibitor CP100356
[2] = system: dengue virus type 2; experiment: Functional immunofluorescence assay to measure dose dependent changes in antiviral-drug inhibitory efficacy against Dengue virus type 2 Thailand/16681/84 in Vero E6/TMPRSS2 cells (cotreated with P-gp inhibitor, Elacridar). Cells are treated with antiviral candidates that are serially diluted, following infection, cells are fixed. EC50 is reported via analysis of immunofluorescence staining. The assay has been performed by Icahn School of Medicine at Mount Sinai.; type: organism-based, Chlorocebus sabaeus, VeroE6/TMPRSS2; settings: Dengue virus; for EC90: P-gp concentration 2 uM, P-gp inhibitor Elacidar
[3] = system: Zika virus; experiment: EC50 is reported via analysis of immunofluorescence staining. The assay has been performed by Icahn School of Medicine at Mount Sinai.; type: functional, organism-based, Chlorocebus sabaeus, VeroE6/TMPRSS2
[4] = system: Zika virus; experiment: Functional CPE-based assay to measure dose dependent changes in antiviral-drug inhibitory efficacy against Zika virus MR766 in Vero E6 miRFP670 cells (cotreated with P-gp inhibitor, CP100356). Cells are treated with antiviral candidates that are serially diluted. EC50 is reported via analysis of MTS assay as a readout of CPE. The assay has been performed by KU Leuven.; type: organism-based, Chlorocebus sabaeus, Vero C1008; settings: for EC90: P-gp concentration 500 nM, P-gp inhibitor CP100356

Cc1c(C(=O)Nc2cc([C@H]3CCOC3)ccn2)cc(C2CC2)n1C
EC90 ([1]; Baseline response 0 %, Hill slope 0.336, Maximum measured 108.09 %, Maximum response 100 %, Minimum measured 73.455 %, R squared 0.31): > 50 µM
EC50 ([1]; Dengue virus, Vero C1008): > 50 µM
EC90 ([1]; Dengue virus, Vero C1008, Baseline response 0 %, Hill slope -3.691, Maximum measured 104.755 %, Maximum response 100 %, Minimum measured 84.933 %, R squared 0.225): > 50 µM
EC50 ([2]; VeroE6/TMPRSS2): > 50 µM
EC90 ([2]; VeroE6/TMPRSS2, Maximum measured 144.829 %, Minimum measured 95.742 %): > 50 µM
EC50 ([3]; Zika virus, VeroE6/TMPRSS2): 0.157 µM
EC90 ([3]; Zika virus, VeroE6/TMPRSS2): 49.5 µM
EC50 ([4]; Zika virus, Vero C1008): > 50 µM
EC90 ([4]; Zika virus, Vero C1008, Maximum measured 3.949 %, Minimum measured -5.577 %): > 50 µM
EC90 ([4]; Zika virus, Vero C1008, Maximum measured -8.54 %, Minimum measured -21.261 %): > 50 µM

Cn1cc(CCc2nc3c(C(=O)Nc4ccc5c(c4)CNC5)cc(Cl)cc3[nH]2)cn1
EC50 ([1]; Dengue virus, Vero C1008): > 50 µM
EC90 ([1]; Dengue virus, Vero C1008, Maximum measured 132.966 %, Minimum measured 89.816 %): > 50 µM
EC50 ([2]; VeroE6/TMPRSS2): > 16.7 µM
EC90 ([2]; VeroE6/TMPRSS2, Baseline response 0 %, Hill slope -0.053, Maximum measured 79.122 %, Maximum response 100 %, Minimum measured 42.376 %, R squared 0.043): > 16.7 µM
EC50 ([3]; Zika virus, VeroE6/TMPRSS2): > 16.7 µM
EC90 ([3]; Zika virus, VeroE6/TMPRSS2, Maximum measured 69.995 %, Minimum measured 22.891 %, P-gp concentration 2 uM, P-gp inhibitor Elacidar): > 16.7 µM
EC50 ([4]; Zika virus, Vero C1008): > 50 µM
EC90 ([4]; Zika virus, Vero C1008, Baseline response 0 %, Hill slope 0.081, Maximum measured 22.254 %, Maximum response 100 %, Minimum measured 2.34 %, R squared 0.041): > 50 µM

O=C(Nc1ccc2c(c1)CNC2)c1cc(F)cc2[nH]ncc12
EC50 ([1]; Dengue virus, Vero C1008): > 50 µM
EC90 ([1]; Dengue virus, Vero C1008, Maximum measured 105.261 %, Minimum measured 100.126 %): > 50 µM
EC50 ([2]; VeroE6/TMPRSS2): > 50 µM
EC90 ([2]; VeroE6/TMPRSS2, Maximum measured 176.33 %, Minimum measured 105.177 %): > 50 µM
EC90 ([3]; Baseline response 0 %, EC90 CI (lower) 0.259 uM, EC90 CI (upper) 34.627 uM, Hill slope -1.703, Maximum measured 110.866 %, Maximum response 50 %, Minimum measured 3.647 %, P-gp concentration 2 uM, R squared 0.44, P-gp inhibitor Elacidar): 39.5 µM
EC90 ([3]; Zika virus, VeroE6/TMPRSS2, Baseline response 0 %, Hill slope -2.726, Maximum measured 111.669 %, Maximum response 100 %, Minimum measured 14.076 %, P-gp concentration 2 uM, R squared 0.547, P-gp inhibitor Elacidar): > 50 µM
EC50 ([3]; veroe6/tmprss2): 25.4 µM and 10.9 µM
EC50 ([4]; Zika virus, Vero C1008): 25 µM
EC90 ([4]; Zika virus, Vero C1008, Baseline response 0 %, Hill slope 1.231, Maximum measured 66.562 %, Maximum response 100 %, Minimum measured -0.926 %, R squared 0.986): > 50 µM

O=C(NCC(F)F)[C@H](Nc1ccc2c(c1)CNC2)c1cc(Cl)cc(C2CC2)c1
EC50 ([1]; Dengue virus, Vero C1008): > 50 µM
EC90 ([1]; Dengue virus, Vero C1008, Maximum measured 140.556 %, Minimum measured 63.358 %): > 50 µM
EC90 ([1]; Dengue virus, Vero C1008, Maximum measured 143.73 %, Minimum measured 67.897 %): > 25 µM
EC90 ([1]; Dengue virus, Vero C1008, Baseline response 0 %, Hill slope -0.993, Maximum measured 109.944 %, Maximum response 100 %, Minimum measured 57.337 %, R squared 0.512): > 50 µM
EC50 ([1]; vero c1008): > 25 µM
EC50 ([2]; VeroE6/TMPRSS2): > 50 µM
EC90 ([2]; VeroE6/TMPRSS2, Maximum measured 212.671 %, Minimum measured 62.173 %): > 50 µM
EC90 ([3]; Baseline response 0 %, Hill slope -0.396, Maximum measured 99.851 %, Maximum response 100 %, Minimum measured 40.832 %, P-gp concentration 2 uM, R squared 0.557, P-gp inhibitor Elacidar): > 5.56 µM
EC90 ([3]; Baseline response 0 %, Hill slope -0.815, Maximum measured 101.881 %, Maximum response 50 %, Minimum measured 25.102 %, P-gp concentration 2 uM, R squared 0.285, P-gp inhibitor Elacidar): > 5.56 µM
EC90 ([3]; Zika virus, VeroE6/TMPRSS2, Maximum measured 91.336 %, Minimum measured 34.975 %, P-gp concentration 2 uM, P-gp inhibitor Elacidar): > 1.85 µM
EC90 ([3]; Zika virus, VeroE6/TMPRSS2, Baseline response 0 %, Hill slope -0.205, Maximum measured 120.59 %, Maximum response 100 %, Minimum measured 43.549 %, P-gp concentration 2 uM, R squared 0.084, P-gp inhibitor Elacidar): > 5.56 µM
EC90 ([4]; Baseline response 0 %, EC90 CI (lower) 0 uM, EC90 CI (upper) 0 uM, Hill slope 19.422, Maximum measured 104.146 %, Maximum response 100 %, Minimum measured 1.001 %, R squared 0.972): 3.54 µM
EC90 ([4]; Baseline response 0 %, EC90 CI (lower) 1.312 uM, EC90 CI (upper) 1.931 uM, Hill slope 6.18, Maximum measured 105.591 %, Maximum response 100 %, Minimum measured 3.511 %, R squared 0.974): 1.59 µM
EC90 ([4]; Baseline response 0 %, EC90 CI (lower) 26.105 uM, EC90 CI (upper) 61.789 uM, Hill slope 1.533, Maximum measured 103.939 %, Maximum response 100 %, Minimum measured 1.936 %, R squared 0.959): 40.2 µM
EC50 ([4]; vero c1008): 9.58 µM and 3.16 µM and 1.11 µM

Cn1cc(CNC(=O)[C@H](Nc2ccc3c(c2)CNC3)c2cc(Cl)cc(C3CC3)c2)cn1
EC50 ([1]; Dengue virus, Vero C1008): > 50 µM
EC90 ([1]; Dengue virus, Vero C1008, Maximum measured 110.921 %, Minimum measured 103.415 %): > 50 µM
EC50 ([2]; VeroE6/TMPRSS2): > 50 µM
EC90 ([2]; VeroE6/TMPRSS2, Maximum measured 219.34 %, Minimum measured 69.596 %): > 50 µM
EC90 ([3]; Zika virus, VeroE6/TMPRSS2, Maximum measured 136.439 %, Minimum measured 82.812 %, P-gp concentration 2 uM, P-gp inhibitor Elacidar): > 5.56 µM
EC90 ([3]; Zika virus, VeroE6/TMPRSS2, Maximum measured 172.39 %, Minimum measured 65.114 %, P-gp concentration 2 uM, P-gp inhibitor Elacidar): > 50 µM
EC50 ([3]; veroe6/tmprss2): > 50 µM
EC50 ([4]; Zika virus, Vero C1008): > 50 µM
EC90 ([4]; Zika virus, Vero C1008, Maximum measured -1.973 %, Minimum measured -8.89 %): > 50 µM
